# Results reported in patent publication US20240181123A1, “DRUG-ELUTING SUTURE FOR ATTENUATING INFLAMMATION IN WOUNDS” (University of Utah Research Foundation, priority 2022, published 2024).
# Assay type: physicochemical
# Description: In another variation of the manufacturing process involving hot-melt extrusion, a mixed/combined composition of the polymer material (often in the form of a powder) and the anti-inflammatory agent is raised to a temperature above the glass transition temperature of the polymer material. The combined composition is then subjected to hot-melt extrusion to form the suture. The temperature during the hot-melt extrusion process preferably remains at or below 140° C. We discovered that tacrolimus begins to degrade at temperatures above this limit. By carrying out the hot-melt extrusion at temperatures at or below 140° C., the process allows for the formation of the suture without causing degradation of the tacrolimus or the polymer material.
smiles,measurement,value
C=CC[C@@H]1/C=C(\C)C[C@H](C)C[C@H](OC)[C@H]2O[C@@](O)(C(=O)C(=O)N3CCCC[C@H]3C(=O)O[C@H](/C(C)=C/[C@@H]3CC[C@@H](O)[C@H](OC)C3)[C@H](C)[C@@H](O)CC1=O)[C@H](C)C[C@@H]2OC [tacrolimus],temperature above which tacrolimus begins to degrade,> 140 °C
